Laboratory results: patent US9211310B2, “Use of a Chinese medicine composition in preparing medicaments for treating secondary prevention of myocardial infarction” (TASLY PHARMACEUTICAL GROUP CO., LTD, priority 2010, dated 2015)

Tested on: patients after acute myocardial infarction
Assay: Life quality, Seattle Angina Questionnaire (SAQ), same clinical trial
Type: in vivo, human
Conditions: FAS
Source text: 3508 patients who were in accordance with the diagnostic standards of AMI for 28 days to 2 years and differentiated as Qi deficiency and blood stagnation syndrome by TCM were studied. 0.5 g Chinese medicine composition prepared by the method of EXAMPLE 1 (Coded as QSYQ) was administrated half an hour after meal, 3 times per day.
There were 19 questions in the Seattle angina questionnaire (SAQ), including 5 parts: physical limitation (PL), anginal stability (AS), anginal frequency (AF), treatment satisfaction (TS) and disease perception (DP). After being given necessary explanation by doctors, the questions were answered independently by patients.
They included the overall survival time, angina pectoris score, TCM symptom score and life quality score, where angina pectoris score, TCM symptom score and life quality score were evaluated at randomization, in 1st, 3rd, 6th, 9th, 12th month after treatment and 18th month after follow-up.
All evaluation results of SAQ were described during the period of observation, and Wilcoxon rank sum test was used for inter-group comparison.
The evaluation results in the SAQ were depicted in different observations, and inter-group comparison was tested by Wilcoxon Rank-sum test.

SMILES: CC(=O)Oc1ccccc1C(=O)O [Control group, aspirine]
- 10th question: Mostly satisfied, patients (%) (Baseline): (16.89%)
- 10th question: Partly satisfied, patients (%) (Baseline): (31.19%)
- 11th question: Continuously worried, patients (%) (Baseline): (9.59%)
- 11th question: No worried, patients (%) (Baseline): (4.13%)
- 11th question: Occasionally worried, patients (%) (Baseline): (40.93%)
- 11th question: Often worried, patients (%) (Baseline): (23.88%)
- 11th question: Seldom worried, patients (%) (Baseline): (21.47%)
- SAQ 4th question, 1-2 times per week: % of patients (Baseline): (19.80%)
- SAQ 4th question, 1-2 times per week: number of patients (Baseline): 344
- SAQ 4th question, 1-3 times per day: % of patients (Baseline): (8.64%)
- SAQ 4th question, 1-3 times per day: number of patients (Baseline): 150
- SAQ 4th question, <1 time per week: % of patients (Baseline): (10.13%)
- SAQ 4th question, <1 time per week: number of patients (Baseline): 176
- SAQ 4th question, Not used: % of patients (Baseline): (43.64%)
- SAQ 4th question, Not used: number of patients (Baseline): 758
- SAQ 4th question, ≧3 times per week: % of patients (Baseline): (16.87%)
- SAQ 4th question, ≧3 times per week: number of patients (Baseline): 293
- SAQ 4th question, ≧4 times per day: % of patients (Baseline): (0.92%)
- SAQ 4th question, ≧4 times per day: number of patients (Baseline): 16
- SAQ 5th question, Few: % of patients (Baseline): (18.88%)
- SAQ 5th question, Few: number of patients (Baseline): 328
- SAQ 5th question, Mild: % of patients (Baseline): (30.74%)
- SAQ 5th question, Mild: number of patients (Baseline): 534
- SAQ 5th question, Moderate: % of patients (Baseline): (20.50%)
- SAQ 5th question, Moderate: number of patients (Baseline): 356
- SAQ 5th question, None: % of patients (Baseline): (23.43%)
- SAQ 5th question, None: number of patients (Baseline): 407
- SAQ 5th question, Not medicated by doctors: % of patients (Baseline): (2.99%)
- SAQ 5th question, Not medicated by doctors: number of patients (Baseline): 52
- SAQ 5th question, Severe: % of patients (Baseline): (3.45%)
- SAQ 5th question, Severe: number of patients (Baseline): 60
- SAQ 6th question, Dissatisfied: % of patients (Baseline): (1.15%)
- SAQ 6th question, Dissatisfied: number of patients (Baseline): 20
- SAQ 6th question, Highly satisfied: % of patients (Baseline): (15.33%)
- SAQ 6th question, Highly satisfied: number of patients (Baseline): 267
- SAQ 6th question, Mostly dissatisfied: % of patients (Baseline): (6.54%)
- SAQ 6th question, Mostly dissatisfied: number of patients (Baseline): 114
- SAQ 6th question, Mostly satisfied: % of patients (Baseline): (45.52%)
- SAQ 6th question, Mostly satisfied: number of patients (Baseline): 793
- SAQ 6th question, Partly satisfied: % of patients (Baseline): (31.46%)
- SAQ 6th question, Partly satisfied: number of patients (Baseline): 548
- SAQ 7th question, Dissatisfied: % of patients (Baseline): (0.40%)
- SAQ 7th question, Dissatisfied: number of patients (Baseline): 7
- SAQ 7th question, Highly satisfied: % of patients (Baseline): (20.40%)
- SAQ 7th question, Highly satisfied: number of patients (Baseline): 355
- SAQ 7th question, Mostly dissatisfied: % of patients (Baseline): (4.60%)
- SAQ 7th question, Mostly dissatisfied: number of patients (Baseline): 80
- SAQ 7th question, Mostly satisfied: % of patients (Baseline): (47.99%)
- SAQ 7th question, Mostly satisfied: number of patients (Baseline): 835
- SAQ 7th question, Partly satisfied: % of patients (Baseline): (26.61%)
- SAQ 7th question, Partly satisfied: number of patients (Baseline): 463
- SAQ Question 1-1 Mildly limited, number of patients (Baseline): 34
- SAQ Question 1-1 Mildly limited, percent of patients (Baseline): (1.95%)
- SAQ Question 1-1 Moderately limited, number of patients (Baseline): 16
- SAQ Question 1-1 Moderately limited, percent of patients (Baseline): (0.92%)
- SAQ Question 1-1 Not limited, number of patients (Baseline): 1582
- SAQ Question 1-1 Not limited, percent of patients (Baseline): (90.92%)
- SAQ Question 1-1 Other reasons, number of patients (Baseline): 5
- SAQ Question 1-1 Other reasons, percent of patients (Baseline): (0.29%)
- SAQ Question 1-1 Severely limited, number of patients (Baseline): 1
- SAQ Question 1-1 Severely limited, percent of patients (Baseline): (0.06%)
- SAQ Question 1-1 Slightly limited, number of patients (Baseline): 102
- SAQ Question 1-1 Slightly limited, percent of patients (Baseline): (5.86%)
- SAQ Question 1-2 Mildly limited, number of patients (Baseline): 46
- SAQ Question 1-2 Mildly limited, percent of patients (Baseline): (2.64%)
- SAQ Question 1-2 Moderately limited, number of patients (Baseline): 18
- SAQ Question 1-2 Moderately limited, percent of patients (Baseline): (1.03%)
- SAQ Question 1-2 Not limited, number of patients (Baseline): 1539
- SAQ Question 1-2 Not limited, percent of patients (Baseline): (88.45%)
- SAQ Question 1-2 Other reasons, number of patients (Baseline): 6
- SAQ Question 1-2 Other reasons, percent of patients (Baseline): (0.34%)
- SAQ Question 1-2 Severely limited, number of patients (Baseline): 2
- SAQ Question 1-2 Severely limited, percent of patients (Baseline): (0.11%)
- SAQ Question 1-2 Slightly limited, number of patients (Baseline): 129
- SAQ Question 1-2 Slightly limited, percent of patients (Baseline): (7.41%)
- SAQ Question 1-6: Mildly limited, patients (%) (Baseline): (20.89%)
- SAQ Question 1-6: Moderately limited, patients (%) (Baseline): (17.95%)
- SAQ Question 1-6: Not limited, patients (%) (Baseline): (25.85%)
- SAQ Question 1-6: Other reasons, patients (%) (Baseline): (0.92%)
- SAQ Question 1-6: Severely limited, patients (%) (Baseline): (6.75%)
- SAQ Question 1-6: Slightly limited, patients (%) (Baseline): (27.64%)
- SAQ Question 1-7: Mildly limited, patients (%) (Baseline): (24.74%)
- SAQ Question 1-7: Moderately limited, patients (%) (Baseline): (19.42%)
- SAQ Question 1-7: Not limited, patients (%) (Baseline): (10.64%)
- SAQ Question 1-7: Other reasons, patients (%) (Baseline): (2.81%)
- SAQ Question 1-7: Severely limited, patients (%) (Baseline): (20.94%)
- SAQ Question 1-7: Slightly limited, patients (%) (Baseline): (21.46%)
- SAQ Question 1-8: Mildly limited, patients (%) (Baseline): (23.63%)
- SAQ Question 1-8: Moderately limited, patients (%) (Baseline): (22.57%)
- SAQ Question 1-8: Not limited, patients (%) (Baseline): (8.07%)
- SAQ Question 1-8: Other reasons, patients (%) (Baseline): (2.40%)
- SAQ Question 1-8: Severely limited, patients (%) (Baseline): (25.96%)
- SAQ Question 1-8: Slightly limited, patients (%) (Baseline): (17.37%)
- 8th question: Dissatisfied, patients (%) (Follow-up): (0.07%)
- 8th question: Highly satisfied, patients (%) (Follow-up): (28.03%)
- 8th question: Mostly dissatisfied, patients (%) (Follow-up): (0.62%)
- 8th question: Mostly satisfied, patients (%) (Follow-up): (60.61%)
- 8th question: Partly satisfied, patients (%) (Follow-up): (10.67%)
- 9th question: Few, patients (%) (Follow-up): (44.26%)
- 9th question: Mild, patients (%) (Follow-up): (27.29%)
- 9th question: Moderate, patients (%) (Follow-up): (3.78%)
- 9th question: Severe, patients (%) (Follow-up): (0.14%)
- 9th question: Uneffective, patients (%) (Follow-up): (24.54%)
- 10th question: Dissatisfied, patients (%) (Follow-up): (18.50%)
- 10th question: Highly satisfied, patients (%) (Follow-up): (9.56%)
- 10th question: Mostly dissatisfied, patients (%) (Follow-up): (19.05%)
- 10th question: Mostly satisfied, patients (%) (Follow-up): (32.12%)
- 10th question: Partly satisfied, patients (%) (Follow-up): (20.77%)
- 11th question: Continuously worried, patients (%) (Follow-up): (1.38%)
- 11th question: No worried, patients (%) (Follow-up): (8.80%)
- 11th question: Occasionally worried, patients (%) (Follow-up): (38.93%)
- 11th question: Often worried, patients (%) (Follow-up): (6.74%)
- 11th question: Seldom worried, patients (%) (Follow-up): (44.15%)
- SAQ 4th question, 1-2 times per week: % of patients (Follow-up): (13.28%)
- SAQ 4th question, 1-2 times per week: number of patients (Follow-up): 192
- SAQ 4th question, 1-3 times per week: % of patients (Follow-up): (2.84%)
- SAQ 4th question, 1-3 times per week: number of patients (Follow-up): 41
- SAQ 4th question, <1 time per week: % of patients (Follow-up): (16.04%)
- SAQ 4th question, <1 time per week: number of patients (Follow-up): 232
- SAQ 4th question, Not used: % of patients (Follow-up): (66.04%)
- SAQ 4th question, Not used: number of patients (Follow-up): 955
- SAQ 4th question, ≧3 times per week: % of patients (Follow-up): (1.80%)
- SAQ 4th question, ≧3 times per week: number of patients (Follow-up): 26
- SAQ 4th question, ≧4 times per day: % of patients (Follow-up): (0.00%)
- SAQ 4th question, ≧4 times per day: number of patients (Follow-up): 0
- SAQ 5th question, 1-2 times per week: % of patients (Follow-up): (32.97%)
- SAQ 5th question, 1-2 times per week: number of patients (Follow-up): 478
- SAQ 5th question, 1-3 times per day: % of patients (Follow-up): (3.17%)
- SAQ 5th question, 1-3 times per day: number of patients (Follow-up): 46
- SAQ 5th question, <1 time per week: % of patients (Follow-up): (31.17%)
- SAQ 5th question, <1 time per week: number of patients (Follow-up): 452
- SAQ 5th question, No onset: % of patients (Follow-up): (7.52%)
- SAQ 5th question, No onset: number of patients (Follow-up): 109
- SAQ 5th question, ≧3 times per week: % of patients (Follow-up): (25.03%)
- SAQ 5th question, ≧3 times per week: number of patients (Follow-up): 363
- SAQ 5th question, ≧4 times per day: % of patients (Follow-up): (0.14%)
- SAQ 5th question, ≧4 times per day: number of patients (Follow-up): 2
- SAQ 6th question, Dissatisfied: % of patients (Follow-up): (0.00%)
- SAQ 6th question, Dissatisfied: number of patients (Follow-up): 0
- SAQ 6th question, Highly satisfied: % of patients (Follow-up): (28.18%)
- SAQ 6th question, Highly satisfied: number of patients (Follow-up): 410
- SAQ 6th question, Mostly dissatisfied: % of patients (Follow-up): (0.62%)
- SAQ 6th question, Mostly dissatisfied: number of patients (Follow-up): 9
- SAQ 6th question, Mostly satisfied: % of patients (Follow-up): (62.75%)
- SAQ 6th question, Mostly satisfied: number of patients (Follow-up): 913
- SAQ 6th question, Partly satisfied: % of patients (Follow-up): (8.45%)
- SAQ 6th question, Partly satisfied: number of patients (Follow-up): 123
- SAQ 7th question, Dissatisfied: % of patients (Follow-up): (0.00%)
- SAQ 7th question, Dissatisfied: number of patients (Follow-up): 0
- SAQ 7th question, Highly satisfied: % of patients (Follow-up): (30.56%)
- SAQ 7th question, Highly satisfied: number of patients (Follow-up): 444
- SAQ 7th question, Mostly dissatisfied: % of patients (Follow-up): (0.28%)
- SAQ 7th question, Mostly dissatisfied: number of patients (Follow-up): 4
- SAQ 7th question, Mostly satisfied: % of patients (Follow-up): (62.49%)
